This passage reports Ki results from US20040142933A1, “Oxindole substituted piperazine derivatives” (priority 2002, published 2004).

Broadly, the Ki is a dissociation constant, usually derived from enzyme kinetics or from competition with a known ligand. A high value points to lower affinity.

For assay [1], the target named is T1, serotonin 2A (5HT2A) receptor (Homo sapiens, UniProt P28223).
T1 construct: expressed in transfected cells; host or cells: Swiss cells (Swiss-h5HT2A)
Description: Serotonin 2A binding, [3H]ketanserin, Swiss-h5HT2A cell membranes. The following applies: [3H]ketanserin 1.0 nM. The source says: (§1) The ability of the compounds of this invention to bind to the dopamine D2 and serotonin 2A (5HT2A) receptors can be determined using conventional radioligand receptor binding assays. All receptors can be heterologously expressed in cell lines and experiments conducted in membrane preparations from the cell lines using procedures outlined below. IC50 concentrations can be determined by nonlinear regression of concentration-dependent reduction in specific binding. The Cheng-Prussoff equation can be used to convert the IC50 to Ki concentrations.
[^3H] Ketanserin binding to Swiss-h5HT2A cell membranes can be carried out in 250 μl of 50 mM Tris-HCl buffer pH 7.4. Duplicate samples containing (in order of addition) test compounds, 1.0 nM [^3H]ketanserin, and approximately 75 μg protein are incubated for 120 minutes at room temperature. Bound radioligand is separated by rapid filtration under reduced pressure through Whatman GF/B glass fiber filters previously treated with 0.3% polyethyleneimine. Radioactivity retained on the filter is determined by liquid scintillation spectrophotometry.
The title compounds of Examples 1-14 were tested using the above assay, in which specific binding determined in the presence of 1 mM ketanserin was 90%.

The target in assay [2] is T2, dopamine D2 receptor (Homo sapiens, UniProt P14416).
T2 construct: expressed in transfected cells; host or cells: CHO cells (CHO-hD2L)
Description: Dopamine D2 receptor binding, [3H]spiperone, CHO-hD2L cell membranes. As to conditions: [3H]spiperone 0.4 nM.
From the text: as §1
Dopamine D2 Receptor Binding:
[^3H]Spiperone binding to a membrane preparation from CHO-hD2L cells is carried out in 250 μl of 50 mM Tris-HCl buffer containing 100 mM NaCl, 1 mM MgCl2 and 1% DMSO at pH 7.4. Duplicate samples containing (in order of addition) the test compounds, 0.4 nM [^3H]spiperone and approximately 12 μg protein are incubated for 120 minutes at room temperature. Bound radioligand is separated by rapid filtration under reduced pressure through Whatman GF/B glass fiber filters previously treated with 0.3% polyethyleneimine. Radioactivity retained on the filter is determined by liquid scintillation spectrophotometry.
The title compounds of Examples 1-14 were tested using the above assay, in which specific binding determined in the presence of 1 mM haloperidol was 95%.

Structures are written as SMILES.

T1 sequence (P28223 whole entry): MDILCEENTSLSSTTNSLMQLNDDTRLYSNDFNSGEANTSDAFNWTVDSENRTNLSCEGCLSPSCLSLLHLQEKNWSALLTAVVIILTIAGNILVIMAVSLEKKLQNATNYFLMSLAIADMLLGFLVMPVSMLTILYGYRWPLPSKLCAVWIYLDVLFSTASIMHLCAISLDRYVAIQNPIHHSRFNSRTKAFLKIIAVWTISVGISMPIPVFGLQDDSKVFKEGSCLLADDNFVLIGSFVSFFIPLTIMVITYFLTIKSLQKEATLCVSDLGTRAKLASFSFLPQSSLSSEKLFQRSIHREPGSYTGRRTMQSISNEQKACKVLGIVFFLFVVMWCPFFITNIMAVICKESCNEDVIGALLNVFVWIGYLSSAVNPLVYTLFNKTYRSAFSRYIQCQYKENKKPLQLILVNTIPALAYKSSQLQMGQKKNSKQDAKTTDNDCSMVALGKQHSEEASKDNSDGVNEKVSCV
T2 sequence (P14416 whole entry): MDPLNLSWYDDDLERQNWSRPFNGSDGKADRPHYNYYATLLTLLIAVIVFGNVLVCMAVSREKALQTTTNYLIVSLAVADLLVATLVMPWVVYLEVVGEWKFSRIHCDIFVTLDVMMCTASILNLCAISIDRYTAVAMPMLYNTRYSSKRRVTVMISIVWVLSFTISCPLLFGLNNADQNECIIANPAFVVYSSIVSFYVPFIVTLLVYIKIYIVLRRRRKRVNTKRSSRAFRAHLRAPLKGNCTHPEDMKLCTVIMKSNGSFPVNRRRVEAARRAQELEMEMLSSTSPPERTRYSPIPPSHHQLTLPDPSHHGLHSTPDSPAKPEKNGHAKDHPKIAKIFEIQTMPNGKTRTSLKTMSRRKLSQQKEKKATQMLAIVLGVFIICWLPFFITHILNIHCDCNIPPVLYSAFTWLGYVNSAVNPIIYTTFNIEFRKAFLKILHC

As for `CC(C)=C1C(=O)N(C)c2ccc(CCN3CCN(c4nsc5ccccc45)CC3)cc21` [Example 1, 5-[2-(4-1,2-benzisothiazol-3-yl-piperazin-1-yl)-ethyl]-3-isopropylidene-1-methyl-1,3-dihydro-indol-2-one], the Ki in assay [1] turned out to be 0.75 nM; in assay [2] it was 14.7 nM. As for `CC(C)=C1C(=O)Nc2ccc(CCCN3CCN(c4noc5ccccc45)CC3)cc21` [Example 4, 5-[3-(4-1,2-Benzisoxazol-3-yl-piperazin-1-yl)-propyl]-3-isopropylidene-1,3-dihydro-indol-2-one], the Ki in assay [2] was 49.4 nM. In the case of `CC(C)=C1C(=O)Nc2cc(Cl)c(CCN3CCN(c4nsc5ccccc45)CC3)cc21` [Example 5, 5-[2-(4-1,2-benzisothiazol-3-yl-piperazin-1-yl)-ethyl]-6-chloro-3-isopropylidene-1,3-dihydro-indol-2-one], the values for the Ki in assay [1] and in assay [2] were 8.4 nM and 1.3 nM, respectively. `CC1(C)CC12C(=O)Nc1cc(Cl)c(CCCN3CCN(c4nsc5ccccc45)CC3)cc12` (stereo not drawn) [Example 14, Spiro[cyclopropane-1,3′-{3H}indol]-2′(1′H)-one,5′-[3-[4-{1,2-benzisothiazol-3-yl}-1-piperazinyl]propyl]-6′-chloro-2,2-dimethyl—]: the Ki in assay [1] stood at 7.45 nM.
